Experimental data taken from US8791144B2, “Substituted N-phenyl-1-(4-Pyridinyl)-1H-pyrazol-3-amines” (Janssen Pharmaceutica NV, priority 2009, dated 2014).

Experiments:
hα7-wt nAChR [1] = biological target: T1, hα7-wt nAChR (Homo sapiens, UniProt P36544); assay: Ca2+ flux imaging (FDSS): potentiation of the choline response; type: cell-based; conditions: for EC50: Ca2+ assay as described in D.1, potentiation of choline response, hα7-wt nAChR, read-out: Potency (pEC50) (converted)
Protocol: • a) Assay Buffer • Hanks buffered saline solution (HBSS, Invitrogen, Belgium), supplemented with 10 mM HEPES (Invitrogen, Belgium), CaCl2 to a final concentration of 5 mM, 0.1% Bovine serum albumin (Sigma-Aldrich NV, Belgium). • b) Calcium-Sensitive Dye—Fluo-4AM • Fluo-4AM (Molecular Probes, USA) was dissolved in DMSO containing 10% Pluronic acid (Molecular Probes, USA) to give a stock solution which was diluted in assay buffer supplemented with 5 mM probenicid (Sigma, Aldrich NV, Belgium) to give a final concentration of 2 μM. • c) 384-Well Plates • Black 384 well plate black/clear plates, PDL pre-coated (Corning, Incorporated, USA) • d) Calcium Flux Measurement • A Functional drug screening system (FDSS, Hamamatsu) was used to measure intracellular free-calcium flux signals. Method
Monolayers of hα7-wt nAChR-expressing cells were grown in multi-well plates, in particular black-sided, transparent bottomed 384 well plates coated with poly-D-lysine for 24 hours prior to loading with a fluorescent calcium indicator, in a particular embodiment loading with fluo-4AM for up to 120 minutes.
PAM activity was detected in real time by applying the compounds to be tested to the loaded cells along with a α7 nicotinic receptor agonist during constant monitoring of cellular fluorescence in a FDSS. Compounds giving peak fluorescent responses greater than the response due to agonist alone, were considered to be α7 nAChR PAM's. In a particular embodiment, the α7 nicotinic receptor agonist was choline, a more particular embodiment choline applied at a sub-maximal concentration of 100 μM. In a further setting of the present invention the compounds to be tested were applied prior to the α7 nicotinic receptor agonist, in a particular embodiment up to 10 minutes prior to the agonist.
A control response to choline was calculated on each plate from the difference in peak in fluorescence in wells receiving either choline or assay buffer alone. Compounds of the present invention were tested at a concentration range from 0.01 μM to 30 μM. Compounds were considered to have an interesting activity when they potentiated the choline signal at least with 200% when tested at a concentration of 30 μM (the efficacy of 100 μM choline was defined as 100% in the absence of a PAM). An EC50 (or pEC50) was determined as a concentration relating to half the maximal effect, when a clear sigmoidal curve with top plateau was obtained.

hα7-wt nAChR [2] = biological target: T1, hα7-wt nAChR; assay: Patch-clamp current recording (whole-cell voltage clamp), potentiation of choline current and PAM type; type: cell-based; parameters: key: Type 0 compounds minimally enhance the effect size of the current elicited by 1 mM choline.; Type 1 compounds enhance the effect size of the current elicited by 1 mM choline but minimally alter the kinetics of the receptor.; Type 2 compounds enhance the effect size of the current elicited by 1 mM choline while reducing the rate and/or the extent of desensitization.; Type 3 compounds enhance the effect size of the current elicited by 1 mM choline. When tested at higher concentrations up to 10 μM they completely inhibit desensitization, in particular a 1 mM choline application of 250 milliseconds.; Type 4 compounds allow for an initial desensitization of the receptor followed by a re-opening of the receptor during agonist application; conditions: hα7-wt nAChR-expressing GH4C1 cells, 1 mM choline
Protocol: The compounds of the present invention are classified as type 0-4, based on qualitative kinetic properties, as determined by whole-cell voltage-clamp recordings. This classification is based on the effect of an α7 PAM compound, as described hereinbefore, on the signal elicited by an agonist application. In particular, said agonist is choline at a concentration of 1 mM. In a preferred experimental setting, said α7 PAM compound and choline are simultaneously applied to the cell, as described hereinafter. Desensitization is defined as the closure of the receptor upon activation during the application of the agonist in whole-cell voltage-clamp electrophysiology measurements seen as the reduction of the […] current after initial activation by the agonist.
The definition of the PAM types 0-4 is described hereinafter: • Type 0 compounds minimally enhance the effect size of the current elicited by 1 mM choline. • Type 1 compounds enhance the effect size of the current elicited by 1 mM choline but minimally alter the kinetics of the receptor. In particular, the rate and the extent of desensitization, elicited by the agonist, is not affected. The compound-modulated response to 1 mM choline, therefore, is a close to linear scaling of the 1 mM choline response in absence of the α7 PAM compound. • Type 2 compounds enhance the effect size of the current elicited by 1 mM choline while reducing the rate and/or the extent of desensitization. • Type 3 compounds enhance the effect size of the current elicited by 1 mM choline. […] At low-potency concentrations of the α7 PAM compound, the agonist-induced activation, which is followed by desensitization, can still be separated from the compound-induced re-opening as an initial inward current-maximum. At higher potency concentrations of the α7 PAM compound, the re-opening occurs faster than the closure due to desensitization so that the initial current-maximum disappears.
A compound was considered to have interesting PAM-like activity when the potentiation of the peak current was at least 200% compared to the control choline response (=100%). Such compounds are classified as belonging to a particular PAM type in the Experimental Part. Compounds not meeting the condition are not classified as belonging to a particular PAM-type.
The compounds also have a potentiating effect on the response to choline when measured by whole-cell patch clamp electrophysiology in GH4C1 cells stably over-expressing the human wild-type α7 receptor.
Patch-clamp recording from mammalian cells has provided a powerful means of assessing the function of membrane-bound proteins thought to be subunits of ligand-gated ion channels. Activation of such proteins by endogenous or exogenous ligands cause opening of a pore associated with the receptor through which ions flow down their electrochemical gradient. In the case of the hα7-wt nAChR-expressing GH4C1 recombinant cell line the preferential permeability to calcium of this receptor means that calcium flows into the cell upon activation by ACh, choline and other nicotinic ligands giving rise to a calcium current. Since this receptor rapidly desensitizes in the presence of agonist it is important an application system is used which is capable of very rapid switching of solutions (<100 ms) to prevent partial or full desensitisation of receptor responses coincident with the time of agonist application. Consequently, a second convenient technique to assess the enhancement of nicotinic efficacy is patch-clamp recording from hα7-wt nAChR-expressing GH4C1 cells coupled with a rapid-application system.
• a) Assay Buffers • The external recording solution consisted of 152 mM NaCl, 5 mM KCl, 1 mM MgCl2, 1 mM Calcium, 10 mM HEPES; pH 7.3. […]

T1 sequence (P36544 23-502): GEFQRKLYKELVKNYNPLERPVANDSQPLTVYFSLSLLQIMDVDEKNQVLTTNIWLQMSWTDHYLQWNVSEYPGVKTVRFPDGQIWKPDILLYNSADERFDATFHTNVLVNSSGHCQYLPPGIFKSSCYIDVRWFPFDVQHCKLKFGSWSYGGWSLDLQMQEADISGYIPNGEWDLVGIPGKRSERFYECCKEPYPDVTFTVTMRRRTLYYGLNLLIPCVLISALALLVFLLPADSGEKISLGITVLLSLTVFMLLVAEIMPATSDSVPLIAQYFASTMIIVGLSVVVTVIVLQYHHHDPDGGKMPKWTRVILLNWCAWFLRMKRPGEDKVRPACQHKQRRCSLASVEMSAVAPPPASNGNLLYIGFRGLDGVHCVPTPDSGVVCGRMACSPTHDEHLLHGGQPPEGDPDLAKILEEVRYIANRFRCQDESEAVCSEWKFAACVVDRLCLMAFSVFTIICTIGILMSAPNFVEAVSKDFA

SMILES	EC50 (hα7-wt nAChR [1]) [nM]	melting point [°C]	PAM type (hα7-wt nAChR [2])	Emax (hα7-wt nAChR [1]; read-out: % Efficacy) [%]
Cc1cc(-n2nc(Nc3ccc4c(c3)OC(F)(F)O4)cc2CC(=O)NC2CC2)ccn1 [Compound 100, N-cyclopropyl-3-[(2,2-difluoro-1,3-benzodioxol-5-yl)amino]-1-(2-methyl-4-pyridinyl)-1H-pyrazole-5-acetamide]	1260	248.9	2	
COCc1cc(Nc2ccc(F)c(F)c2)nn1-c1ccnc(C)c1 [Compound 22, N-(3,4-difluorophenyl)-5-(methoxymethyl)-1-(2-methyl-4-pyridinyl)-1H-pyrazol-3-amine]	1910	184.2	0	963
CC[C@H](O)Cc1cc(Nc2cc(OC)cc(C(F)(F)F)c2)nn1-c1ccnc(C)c1 [Compound 39, (alphaS)-alpha-ethyl-3-[[3-methoxy-5-(trifluoromethyl)phenyl]amino]-1-(2-methyl-4-pyridinyl)-1H-pyrazole-5-ethanol]	933	129.2	4	
CC[C@H](O)Cc1cc(Nc2ccc3c(c2)OC(F)(F)O3)nn1-c1ccnc(C)c1 [Compound 93, (alphaS)-3-[(2,2-difluoro-1,3-benzodioxol-5-yl)amino]-alpha-ethyl-1-(2-methyl-4-pyridinyl)-1H-pyrazole-5-ethanol]	1700	138.3	2	
CCNC(=O)Cc1cc(Nc2cc(OC)cc(C(F)(F)F)c2)nn1-c1ccnc(C)c1 [Compound 45, N-ethyl-3-[[3-methoxy-5-(trifluoromethyl)phenyl]amino]-1-(2-methyl-4-pyridinyl)-1H-pyrazole-5-acetamide]	200	248.6	4	
COc1cc(Nc2cc(CC(=O)NC3CCC3)n(-c3ccnc(C)c3)n2)cc(C(F)(F)F)c1 [Compound 48, N-cyclobutyl-3-[[3-methoxy-5-(trifluoromethyl)phenyl]amino]-1-(2-methyl-4-pyridinyl)-1H-pyrazole-5-acetamide]	79.4	249.2	4	
CC[C@@H](O)Cc1cc(Nc2ccc(F)c(F)c2)nn1-c1ccnc(C)c1 [Compound 10, (alphaR)-3-[(3,4-difluorophenyl)amino]-alpha-ethyl-1-(2-methyl-4-pyridinyl)-1H-pyrazole-5-ethanol]	832	164.7	2	
CC[C@H](O)Cc1cc(Nc2ccc(F)c(F)c2F)nn1-c1ccnc(C)c1 [Compound 18, (alphaS)-alpha-ethyl-1-(2-methyl-4-pyridinyl)-3-[(2,3,4-trifluorophenyl)amino]-1H-pyrazole-5-ethanol]	2400	149.1	1	
CC[C@H](O)Cc1cc(Nc2cccc(Cl)c2F)nn1-c1ccnc(C)c1 [Compound 58, (alphaS)-3-[(3-chloro-2-fluorophenyl)amino]-alpha-ethyl-1-(2-methyl-4-pyridinyl)-1H-pyrazole-5-ethanol]	2510	168.2	1	
Cc1cc(-n2nc(Nc3ccc4c(c3)OC(F)(F)O4)cc2CCCO)ccn1 [Compound 92, 3-[(2,2-difluoro-1,3-benzodioxol-5-yl)amino]-1-(2-methyl-4-pyridinyl)-1H-pyrazole-5-propanol]	2340	163.3	2	
Cc1cc(-n2nc(Nc3cccc(Cl)c3F)cc2CC(=O)NCC2CC2)cc(C)n1 [Compound 80, 3-[(3-chloro-2-fluorophenyl)amino]-N-(cyclopropylmethyl)-1-(2,6-dimethyl-4-pyridinyl)-1H-pyrazole-5-acetamide]	95.5	210.4	2	
